Patent publication US20110070357A1, “Apparatus and Methods for Loading a Drug Eluting Medical Device” (Medtronic Vascular, Inc., priority 2009, published 2011)

Experiment: solubility of sirolimus in solvents / dispersion media
Assay type: physicochemical
Protocol: Solution 524 is a homogeneous mixture in which therapeutic substance 112 dissolves within a solvent or a solvent mixture. In one embodiment, solution 524 includes a high-capacity solvent 528 which is an organic solvent that has a high capacity to dissolve therapeutic substance 112. High capacity as utilized herein is defined as an ability to dissolve therapeutic substance 112 at concentrations greater than 500 mg of substance per milliliter of solvent. Examples of high capacity drug dissolving solvents for sirolimus and similar substances include but are not limited to tetrahydrofuran (THF), di-chloromethane (DCM), chloroform, and di-methyl-sulfoxide (DMSO). In addition to the high-capacity solvent, solution 524 may include an excipient 526 in order to assist in drug elution. In one embodiment, excipient 526 may be a surfactant such as but not limited to sorbitan fatty acid esters such as sorbitan monooleate and sorbitan monolaurate, polysorbates such as polysorbate 20, polysorbate 60, and polysorbate 80, cyclodextrins such as 2-hydroxypropyl-beta-cyclodextrin and 2,6-di-O-methyl-beta-cyclodextrin, sodium dodecyl sulfate, octyl glucoside, and low molecular weight poly(ethylene glycol)s. In another embodiment, excipient 526 may be a hydrophilic agent such as but not limited to salts such as sodium chloride and other materials such as urea, citric acid, and ascorbic acid. […]

solubility in hexane (hexane): insoluble in hexane
solubility in water (water): insoluble in water
SMILES: CO[C@H]1C[C@@H]2CC[C@@H](C)[C@@](O)(O2)C(=O)C(=O)N2CCCC[C@H]2C(=O)O[C@H]([C@H](C)C[C@@H]2CC[C@@H](O)[C@H](OC)C2)CC(=O)[C@H](C)/C=C(\C)[C@@H](O)[C@@H](OC)C(=O)[C@H](C)C[C@H](C)/C=C/C=C/C=C/1C [sirolimus]
